# Earlier results as cited in patent US5817628A, “Dynorphin a suppression of natural killer cell activity” (The Rockefeller University, priority 1992, dated 1998).
# Test system: NK cells
# Conditions: reported by other investigators
row,Molecule,effect on NK activity in vitro (literature)
1,CN1CC[C@]23c4c5ccc(O)c4O[C@H]2[C@@H](O)C=C[C@H]3[C@H]1C5 [Morphine],enhanced NK activity in one study
2,Met-enkephalin,appears to enhance NK activity
3,"β-endorphin (YGGFMTSEKSQTPLVTLFKNAIIKNAYKKGE; Beta-endorphin; UniProt P01189 237-267, looked up) [endogenous opioid]",increases NK cell activity in vitro
4,CCC(=O)C(CC(C)N(C)C)(c1ccccc1)c1ccccc1 (stereo not shown) [methadone],observed in vitro only at methadone concentrations many orders of magnitude higher than those observed during any clinical use of methadone
